In patent US8722849B2, “Polypeptides” (Novo Nordisk A/S, priority 2011, dated 2014):
Values after ≈ are worked out from the molar mass of the structure shown. Where two headings read alike, the source gives them in different places. Starred links: 1 amine or outer side, 2 acyl side, 3 side chain; linkers in the order of their positions; H or OH if unused. Positions of bridges follow the written chain, without caps; N, C: chain ends. Residues, ends and D or L forms follow the SMILES beside them. *: point of attachment. C20 diacid = O=C(O)CCCCCCCCCCCCCCCCCCC(=O)*; C18 diacid = O=C(O)CCCCCCCCCCCCCCCCC(=O)*; γGlu = O=C(O)[C@H](CCC(=O)[*:2])N[*:1]

How the values were obtained:
[1] = target: T1, human calcitonin receptor (Homo sapiens, UniProt P30988); experiment: Assay (II)a functional CRE-luciferase assay, human calcitonin receptor; format: cell-based; conditions: Table 7; human calcitonin (CTa) receptor
T1 construct: expressed in transfected cells; host or cells: BHK570
T1 sequence (P30988 25-474): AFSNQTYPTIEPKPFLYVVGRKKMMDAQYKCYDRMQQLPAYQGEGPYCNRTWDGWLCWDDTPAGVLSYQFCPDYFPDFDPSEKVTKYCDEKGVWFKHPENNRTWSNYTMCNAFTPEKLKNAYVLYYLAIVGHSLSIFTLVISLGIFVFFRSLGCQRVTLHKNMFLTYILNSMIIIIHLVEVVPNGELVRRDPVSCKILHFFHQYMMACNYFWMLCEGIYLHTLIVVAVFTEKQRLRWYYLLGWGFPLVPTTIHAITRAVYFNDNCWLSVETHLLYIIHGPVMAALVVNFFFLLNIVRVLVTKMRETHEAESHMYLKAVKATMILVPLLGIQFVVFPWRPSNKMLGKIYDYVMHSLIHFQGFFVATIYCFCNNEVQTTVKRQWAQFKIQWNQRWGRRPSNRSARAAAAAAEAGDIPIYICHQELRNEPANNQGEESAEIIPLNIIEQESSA

[2] = target: T2, human amylin receptor (amylin 3(a) receptor: human calcitonin receptor + RAMP-3) (Homo sapiens, UniProt O60896+P30988); experiment: Assay (II)a functional CRE-luciferase assay, human amylin receptor; format: cell-based; conditions: Table 2; BHK amylin 3(a)-receptor/CRE-luc cells
T2 construct: expressed in transfected cells; host or cells: BHK570
T2 sequence (P30988 25-474): T1 sequence (P30988 25-474)
T2 sequence (O60896 24-148 partner): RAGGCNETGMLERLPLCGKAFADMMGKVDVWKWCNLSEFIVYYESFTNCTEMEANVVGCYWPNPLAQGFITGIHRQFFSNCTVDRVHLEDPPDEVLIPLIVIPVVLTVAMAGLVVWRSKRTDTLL

[3] = Assay (III) ThT fibrillation assay for physical stability; format: physicochemical
Procedure, shortened: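 Freshly prepared formulations, pH-adjusted, with 1 μM ThT; four or eight replicates incubated at 37 °C under 960 rpm orbital shaking. Fluorescence (ex 444/em 485 nm) read every 20 min; […]. Peptide concentration measured by RP-HPLC before and after the run.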

[4] = Assay (IV) determination of solubility; format: physicochemical
Procedure, shortened: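 Solubility is measured across pH 3.0–8.0 by mixing a ~500 nmol/ml aqueous polypeptide stock 1:1 with 100 mM glycylglycine or bistrispropane buffers. Samples stand 18 hours at room temperature, then are centrifuged and the soluble concentration is determined by HPLC.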

[5] = bistrispropane buffer, pH 6, pH 6.0, read-out: Solubility pH 6.0
[6] = bistrispropane buffer, pH 6.5, pH 6.5, read-out: Solubility pH 6.5
[7] = bistrispropane buffer, pH 7, pH 7.0, 18 hours at room temperature, Table 3, read-out: Solubility pH 7.0
[8] = bistrispropane buffer, pH 7, pH 7.0, read-out: Solubility pH 7.0
[9] = bistrispropane buffer, pH 7.5, pH 7.5, read-out: Solubility pH 7.5
[10] = bistrispropane buffer, pH 8, pH 8.0, read-out: Solubility pH 8.0
[11] = glycylglycine buffer, pH 3, pH 3.0, read-out: Solubility pH 3.0
[12] = glycylglycine buffer, pH 4, pH 4.0, 18 hours at room temperature, Table 2, read-out: Solubility pH 4.0
[13] = glycylglycine buffer, pH 4, pH 4.0, read-out: Solubility pH 4.0
[14] = glycylglycine buffer, pH 5, pH 5.0, read-out: Solubility pH 5.0

CC[C@H](C)[C@H](NC(=O)[C@@H]1CCCN1C(=O)CNC(=O)[C@H](Cc1ccccc1)NC(=O)[C@H](CC(N)=O)NC(=O)[C@H](CC(N)=O)NC(=O)[C@H](CO)NC(=O)[C@H](CO)NC(=O)[C@H](Cc1c[nH]cn1)NC(=O)[C@H](Cc1c[nH]cn1)NC(=O)[C@H](CC(C)C)NC(=O)[C@H](Cc1ccccc1)NC(=O)[C@H](CCC(=O)O)NC(=O)[C@H](C)NC(=O)[C@H](CC(C)C)NC(=O)[C@H](CCCNC(=N)N)NC(=O)[C@H](CCC(N)=O)NC(=O)[C@@H](NC(=O)[C@H](C)NC(=O)[C@@H]1CSSC[C@H](NC(=O)[C@H](Cc2c[nH]cn2)NC(=O)[C@H](Cc2c[nH]cn2)NC(=O)CC[C@H](NC(=O)CCCCCCCCCCCCCCCCC(=O)O)C(=O)O)C(=O)N[C@@H](CC(N)=O)C(=O)N[C@@H]([C@@H](C)O)C(=O)N[C@@H](C)C(=O)N[C@@H]([C@@H](C)O)C(=O)N1)[C@@H](C)O)C(=O)N[C@@H](CC(C)C)C(=O)N1CCC[C@H]1C(=O)N1CCC[C@H]1C(=O)N[C@H](C(=O)N[C@@H](CC(N)=O)C(=O)N[C@H](C(=O)NCC(=O)N[C@@H](CO)C(=O)N[C@@H](CC(N)=O)C(=O)N[C@H](C(=O)N[C@@H](Cc1ccc(O)cc1)C(N)=O)[C@@H](C)O)C(C)C)[C@@H](C)O [Example 47, N-alpha-[(S)-4-Carboxy-4-(17-carboxyheptadecanoylamino)butyryl]-His-[His1,Glu14,His17]-pramlintide] ({C18 diacid-γGlu}-HHCNTATCATQRLAEFLHHSSNNFGPILPPTNVGSNTY-NH2; disulfide 3-8 (inferred); C-terminus assumed)
EC50 [1]: 258 pM | EC50 [2]: 59 pM | ThT pH 4.0 lag time (h) ([3]; ThT fibrillation assay): 6 h | solubility at 18 h [4, 5]: 168 µM (≈ 768 µg/mL) | solubility at 18 h [4, 6]: 87 µM (≈ 398 µg/mL) | solubility at 18 h [4, 7]: 118 µM (≈ 540 µg/mL) | solubility at 18 h [4, 8]: 118 µM (≈ 540 µg/mL) | solubility at 18 h [4, 9]: > 200 µM | solubility at 18 h [4, 10]: > 200 µM | solubility at 18 h [4, 11]: > 200 µM | solubility at 18 h [4, 12]: > 200 µM | solubility at 18 h [4, 13]: > 200 µM | solubility at 18 h [4, 14]: > 200 µM

CC[C@H](C)[C@H](NC(=O)[C@@H]1CCCN1C(=O)CNC(=O)[C@H](Cc1ccccc1)NC(=O)[C@H](CC(N)=O)NC(=O)[C@H](CC(N)=O)NC(=O)[C@H](CO)NC(=O)[C@H](CO)NC(=O)[C@H](Cc1c[nH]cn1)NC(=O)[C@H](Cc1c[nH]cn1)NC(=O)[C@H](CC(C)C)NC(=O)[C@H](Cc1ccccc1)NC(=O)[C@H](CCC(=O)O)NC(=O)[C@H](C)NC(=O)[C@H](CC(C)C)NC(=O)[C@H](CCCNC(=N)N)NC(=O)[C@H](CCC(N)=O)NC(=O)[C@@H](NC(=O)[C@H](C)NC(=O)[C@@H]1CSSC[C@H](NC(=O)CC[C@H](NC(=O)CC[C@H](NC(=O)CCCCCCCCCCCCCCCCC(=O)O)C(=O)O)C(=O)O)C(=O)N[C@@H](CC(N)=O)C(=O)N[C@@H]([C@@H](C)O)C(=O)N[C@@H](C)C(=O)N[C@@H]([C@@H](C)O)C(=O)N1)[C@@H](C)O)C(=O)N[C@@H](CC(C)C)C(=O)N1CCC[C@H]1C(=O)N1CCC[C@H]1C(=O)N[C@H](C(=O)N[C@@H](CC(N)=O)C(=O)N[C@H](C(=O)NCC(=O)N[C@@H](CO)C(=O)N[C@@H](CC(N)=O)C(=O)N[C@H](C(=O)N[C@@H](Cc1ccc(O)cc1)C(N)=O)[C@@H](C)O)C(C)C)[C@@H](C)O [Example 49, N-alpha-{(S)-4-Carboxy-4-[(S)-4-Carboxy-4-(17-carboxyheptadecanoylamino)butyrylamino]butyryl}-[des1,Glu14,His17]-pramlintide] ({C18 diacid-γGlu-γGlu}-CNTATCATQRLAEFLHHSSNNFGPILPPTNVGSNTY-NH2; disulfide 1-6 (inferred))
EC50 [1]: 527 pM | EC50 [2]: 151 pM | ThT pH 4.0 lag time (h) ([3]; ThT fibrillation assay): 0 h | solubility at 18 h [4, 5]: > 200 µM | solubility at 18 h [4, 6]: > 200 µM | solubility at 18 h [4, 7]: > 200 µM | solubility at 18 h [4, 8]: > 200 µM | solubility at 18 h [4, 9]: > 200 µM | solubility at 18 h [4, 10]: > 200 µM | solubility at 18 h [4, 11]: > 200 µM | solubility at 18 h [4, 12]: > 200 µM | solubility at 18 h [4, 13]: > 200 µM | solubility at 18 h [4, 14]: 27 µM (≈ 120 µg/mL)

CC[C@H](C)[C@H](NC(=O)[C@@H]1CCCN1C(=O)CNC(=O)[C@H](Cc1ccccc1)NC(=O)[C@H](CC(N)=O)NC(=O)[C@H](CC(N)=O)NC(=O)[C@H](CO)NC(=O)[C@H](CO)NC(=O)[C@H](Cc1c[nH]cn1)NC(=O)[C@H](CCCNC(=N)N)NC(=O)[C@H](CC(C)C)NC(=O)[C@H](Cc1ccccc1)NC(=O)[C@H](CCC(=O)O)NC(=O)[C@H](C)NC(=O)[C@H](CC(C)C)NC(=O)[C@H](CCCNC(=N)N)NC(=O)[C@H](CCC(N)=O)NC(=O)[C@@H](NC(=O)[C@H](C)NC(=O)[C@@H]1CSSC[C@H](NC(=O)[C@H](CCCCN)NC(=O)CC[C@H](NC(=O)CCCCCCCCCCCCCCCCC(=O)O)C(=O)O)C(=O)N[C@@H](CC(N)=O)C(=O)N[C@@H]([C@@H](C)O)C(=O)N[C@@H](C)C(=O)N[C@@H]([C@@H](C)O)C(=O)N1)[C@@H](C)O)C(=O)N[C@@H](CC(C)C)C(=O)N1CCC[C@H]1C(=O)N1CCC[C@H]1C(=O)N[C@H](C(=O)N[C@@H](CC(N)=O)C(=O)N[C@H](C(=O)NCC(=O)N[C@@H](CO)C(=O)N[C@@H](CC(N)=O)C(=O)N[C@H](C(=O)N[C@@H](Cc1ccc(O)cc1)C(N)=O)[C@@H](C)O)C(C)C)[C@@H](C)O [Example 51, N-alpha-[(S)-4-Carboxy-4-(17-carboxyheptadecanoylamino)butyryl]-[Glu14,Arg17]-pramlintide] ({C18 diacid-γGlu}-KCNTATCATQRLAEFLRHSSNNFGPILPPTNVGSNTY-NH2; disulfide 2-7 (inferred); C-terminus assumed)
EC50 [1]: 600 pM | EC50 [2]: 61 pM | ThT pH 4.0 lag time ([3]; Table 8): 28.7 h | ThT pH 4.0 lag time ([3]; ThT fibrillation assay): 28.7 h | ThT pH 4.0 lag time (h) ([3]; ThT fibrillation assay): 28.7 h | solubility at 18 h [4, 5]: > 200 µM | solubility at 18 h [4, 6]: > 200 µM | solubility at 18 h [4, 7]: > 200 µM | solubility at 18 h ([4]; bistrispropane buffer, pH 7, pH 7.0, Table 8, read-out: Solubility pH 7.0): > 200 µM | solubility at 18 h [4, 8]: > 200 µM | solubility at 18 h [4, 9]: > 200 µM | solubility at 18 h [4, 10]: > 200 µM | solubility at 18 h [4, 11]: > 200 µM | solubility at 18 h [4, 12]: > 200 µM | solubility at 18 h [4, 13]: > 200 µM | solubility at 18 h [4, 14]: > 200 µM

CC[C@H](C)[C@H](NC(=O)[C@@H]1CCCN1C(=O)CNC(=O)[C@H](Cc1ccccc1)NC(=O)[C@H](CC(N)=O)NC(=O)[C@H](CC(N)=O)NC(=O)[C@H](CO)NC(=O)[C@H](CO)NC(=O)[C@H](Cc1c[nH]cn1)NC(=O)[C@H](Cc1c[nH]cn1)NC(=O)[C@H](CC(C)C)NC(=O)[C@H](Cc1ccccc1)NC(=O)[C@H](CCC(=O)O)NC(=O)[C@H](C)NC(=O)[C@H](CC(C)C)NC(=O)[C@H](CCCNC(=N)N)NC(=O)[C@H](CCC(=O)O)NC(=O)[C@@H](NC(=O)[C@H](C)NC(=O)[C@@H]1CSSC[C@H](NC(=O)[C@H](CCCCN)NC(=O)CC[C@H](NC(=O)CCCCCCCCCCCCCCCCCCC(=O)O)C(=O)O)C(=O)N[C@@H](CC(N)=O)C(=O)N[C@@H]([C@@H](C)O)C(=O)N[C@@H](C)C(=O)N[C@@H]([C@@H](C)O)C(=O)N1)[C@@H](C)O)C(=O)N[C@@H](CC(C)C)C(=O)N1CCC[C@H]1C(=O)N1CCC[C@H]1C(=O)N[C@H](C(=O)N[C@@H](CC(N)=O)C(=O)N[C@H](C(=O)NCC(=O)N[C@@H](CO)C(=O)N[C@@H](CC(N)=O)C(=O)N[C@H](C(=O)N[C@@H](Cc1ccc(O)cc1)C(N)=O)[C@@H](C)O)C(C)C)[C@@H](C)O [Example 54, N-alpha-[(S)-4-Carboxy-4-(19-carboxynonadecanoylamino)butyryl]-[Glu10,Glu14,His17]-pramlintide] ({C20 diacid-γGlu}-KCNTATCATERLAEFLHHSSNNFGPILPPTNVGSNTY-NH2; disulfide 2-7 (inferred))
EC50 [1]: 199 pM | EC50 [2]: 130 pM | ThT pH 4.0 lag time (h) ([3]; ThT fibrillation assay): 23 h | solubility at 18 h [4, 5]: 100 µM (≈ 446 µg/mL) | solubility at 18 h [4, 6]: 150 µM (≈ 669 µg/mL) | solubility at 18 h [4, 7]: > 200 µM | solubility at 18 h [4, 8]: > 200 µM | solubility at 18 h [4, 9]: > 200 µM | solubility at 18 h [4, 10]: > 200 µM | solubility at 18 h [4, 11]: > 200 µM | solubility at 18 h [4, 12]: > 200 µM | solubility at 18 h [4, 13]: > 200 µM | solubility at 18 h [4, 14]: > 200 µM
